Measured values taken from patent US8557832B2, “Aryl methyl benzoquinazolinine M1 receptor positive allosteric modulators” (Merck Sharp & Dohme Corp., priority 2008, dated 2013).
pEC50: −log10 of the molar value.

The compounds below were run against T1, acetylcholine muscarinic M1 receptor (Homo sapiens, UniProt P11229) (assay: muscarinic FLIPR assay: potentiation of acetylcholine (EC20)-stimulated intracellular Ca2+ in CHOnfat/hM1 cells). Settings: 4 min preincubation, then EC20 acetylcholine (3 nM final), read-out: IP Value (inflection point).
T1 construct: expressed in transfected cells; host or cells: CHOnfat (CHO cells; also called CHOK1/hM1)
T1 sequence (P11229 1-460): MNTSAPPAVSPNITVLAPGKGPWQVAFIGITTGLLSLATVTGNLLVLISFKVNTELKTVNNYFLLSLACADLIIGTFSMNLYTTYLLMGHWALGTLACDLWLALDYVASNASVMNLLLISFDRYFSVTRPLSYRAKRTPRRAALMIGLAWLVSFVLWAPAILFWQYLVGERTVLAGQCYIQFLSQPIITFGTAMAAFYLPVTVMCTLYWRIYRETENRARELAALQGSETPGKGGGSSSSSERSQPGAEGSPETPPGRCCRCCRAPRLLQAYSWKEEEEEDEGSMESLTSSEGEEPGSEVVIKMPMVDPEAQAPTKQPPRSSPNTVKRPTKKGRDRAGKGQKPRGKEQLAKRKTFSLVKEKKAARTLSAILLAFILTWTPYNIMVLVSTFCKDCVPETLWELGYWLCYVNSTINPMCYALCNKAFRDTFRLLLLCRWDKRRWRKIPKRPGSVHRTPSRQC
Type: cell-based
Description: The assay studies the effect of one or several concentrations of test compounds on basal or acetylcholine-stimulated Ca^2+ levels using FLIPR.
Compounds are prepared and subjected to a preincubation period of 4 min. Thereafter, a single EC20 concentration of acetylcholine is added to each well (3 nM final). The intracellular Ca^2+ level of each sample is measured and compared to an acetylcholine control to determine any modulatory activity.
Cells: CHOnfat/hM1, hM2, hM3 or hM4 cells are plated 24 hr before the assay at a density of 18,000 cells/well (100 μL) in a 384 well plate. CHOnfat/hM1 and CHOnfat/hM3 Growth Medium: 90% DMEM (Hi Glucose); 10% HI FBS; 2 mM L-glutamine; 0.1 mM NEAA; Pen-Strep; and 1 mg/ml Geneticin, are added. For M2Gqi5CHOnfat and M4Gqi5CHOnfat cells, an additional 600 ug/ml hygromycin is added.
Equipment: 384 well plate, 120 μL addition plate; 96-well Whatman 2 ml Uniplate Incubator, 37° C., 5% CO2; Skatron EMBLA-384 Plate Washer; Multimek Pipetting System; Genesis Freedom 200 System; Mosquito System; Temo Nanoliter Pipetting System; and FLIPR^384 Fluorometric Imaging Plate Reader System are used.
Buffers. Assay Buffer: Hanks Balanced Salt Solution, with 20 mM Hepes, 2.5 mM Probenecid (Sigma P-8761) first dissolved in 1 N NaOH, 1% Bovine Serum Albumin (Sigma A-9647). Dye Loading Buffer: Assay Buffer plus 1% Fetal Bovine Serum and Fluo-4AM/Pluronic Acid Mixture. 2 mM Fluo-4AM ester stock in DMSO (Molecular Probes F-14202) Concentration of 2 μM in buffer for a final concentration of 1 μM in Assay. 20% Pluronic Acid Solution stock, with concentration of 0.04% in Buffer, 0.02% in Assay.
65 μL of 2 mM Fluo-4AM are mixed with 130 μL of 20% Pluronic Acid. The resulting solution and 650 μL FBS is added to the assay buffer for a total volume of 65 mL. Positive Controls: 4-Br-A23187: 10 mM in DMSO; final concentration 10 μM. Acetylcholine: 10 mM in water, working stock at both 20 μM and 30 μM in assay buffer, final concentration of 10 μM. This is used to check the maximum stimulation of the CHOK1/hM1 cells. 20 μM (2×) acetylcholine is added in the preincubation part of the assay, and the 30 μM (3×) stock is added in the second part. (EC20) Acetylcholine: 10 mM in water, working stock of 9 nM (3×), and final concentration in assay is 3 nM. This is used after the preincubation with test compounds. Addition of the EC20 Acetylcholine to each well with a test compound will ascertain any modulator activity. 24 wells contain 3 nM Acetylcholine alone as a control.
Determining Activity of Putative Compounds:
Screening Plate: Compounds are titrated in 96-well plates (columns 2-11), 100% DMSO, started at a concentration of 15 mM (150× stock concentration), and 3-fold serial dilutions using Genesis Freedom200 System. Four 96-well plates are combined into a 384-well plate using Mosquito Nanolitre Pipetting System by transferring 1 μl of serial diluted compounds to each well, and 1 mM acetylcholine (100× stock concentration) were added as a control. Using Temo, 49 μl assay buffer is added to each well of the 384-well plate right before assay.
In a 96-well Whatman 2 ml Uniplate, 9 nM Acetylcholine (3×) is pipetted into wells corresponding to the screening compounds, and into control wells. The 30 μM acetylcholine control (3×) is added into control wells, and the 3× agonist plate is transferred into a 384 well plate.
Cells are washed three times with 100 μL of buffer, leaving 30 μL of buffer in each well. Using Multimek, 30 μL of Dye Loading Buffer is added into each well and incubated at 37° C., 5% CO2 for up to one hr.
After 60 min, the cells are washed three times with 100 μL of buffer, leaving 30 μL of buffer in each well. The cell plate, screening plate, and agonist addition plates are placed on the platform in the FLIPR and the door closed. A signal test to check background fluorescence and basal fluorescence signal is performed. Laser intensity is adjusted if necessary. […]

Row | SMILES | pEC50
1 | Cc1ccc(Cc2cc3c(=O)n([C@H]4CCCC[C@@H]4O)cnc3c3ccccc23)cn1 (racemic) [Example 1, rac-3-[trans-2-hydroxycyclohexyl]-6-[(6-methylpyridin-3-yl)methyl]benzo[h]quinazolin-4(3H)-one] | 7.29
2 | Cn1cc(-c2ccc(Cc3cc4c(=O)n([C@H]5CCCC[C@@H]5O)cnc4c4ccccc34)cn2)cn1 (racemic) [Example 5, rac-3-[trans-2-hydroxycyclohexyl]-6-{[6-(1-methyl-1H-pyrazol-4-yl)pyridine-3-yl]methyl}benzo[h]quinazolin-4(3H)-one] | 8.10
3 | O=c1c2cc(Cc3ccc(-n4cccn4)nc3)c3ccccc3c2ncn1[C@H]1CCCC[C@@H]1O (racemic) [Example 6, rac-3-[trans-2-hydroxycyclohexyl]-6-{[6-(1H-pyrazol-1-yl)pyridin-3-yl]methyl}benzo[h]quinazolin-4(3H)-one] | 7.51
4 | N#Cc1ccc(Cc2cc3c(=O)n([C@H]4CCCC[C@@H]4O)cnc3c3ccccc23)cn1 (racemic) [Example 7, rac-5-({3-[trans-2-hydroxycyclohexyl]-4-oxo-3,4-dihydrobenzo[h]quinazolin-6-yl}methyl)pyridine-2-carbonitrile] | 7.13
5 | CS(=O)(=O)c1ccc(Cc2cc3c(=O)n([C@H]4CCCC[C@@H]4O)cnc3c3ccccc23)cn1 (racemic) [Example 8, rac-3-[trans-2-hydroxycyclohexyl]-6-{[6-methylsulfonyl)pyridine-3-yl]methyl}benzo[h]quinazolin-4(3H)-one] | 7.03
6 | COc1ccc(Cc2cc3c(=O)n([C@H]4CCCC[C@@H]4O)cnc3c3ccccc23)cn1 (racemic) [Example 9, rac-3-[trans-2-hydroxycyclohexyl]-6-[(6-methoxypyridin-3-yl)methyl]benzo[h]quinazolin-4(3H)-one] | 7.14
7 | CC(=O)O[C@H]1CCCC[C@@H]1n1cnc2c(cc(Cc3ccc(Cl)nc3)c3ccccc32)c1=O (racemic) [Example 11, trans-2-[6-[(6-chloropyridin-3-yl)methyl]-4-oxobenzo[h]quinazolin-3(4H)-yl]cyclohexyl rac-acetate] | 5.44
8 | O=c1c2cc(Cc3ccc(CO)nc3)c3ccccc3c2ncn1[C@H]1CCCC[C@@H]1O (racemic) [Example 15, rac-3-[trans-2-hydroxycyclohexyl]-6-{[6-(hydroxymethyl)pyridine-3-yl]methyl}benzo[h]quinazolin-4(3H)-one] | 7.62
9 | Cn1cc(Cc2cc3c(=O)n([C@H]4CCCC[C@@H]4O)cnc3c3ccccc23)ccc1=O (racemic) [Example 16, rac-3-[trans-2-hydroxycyclohexyl]-6-[(1-methyl-6-oxo-1,6-dihydropyridin-3-yl)methyl]benzo[h]quinazolin-4(3H)-one] | 7.08
10 | Cc1ccc(Cc2cc3c(=O)n([C@H]4CCCC[C@@H]4O)cnc3c3ccccc23)cn1 [Example 2, 3-[(1S,2S)-2-hydroxycyclohexyl]-6-[(6-methylpyridin-3-yl)methyl]benzo[h]quinazolin-4(3H)-one] | 7.68
11 | COc1ccc(Cc2cc3c(=O)n(-c4cc(C)[nH]n4)cnc3c3ccccc23)cc1 [Example 3] | 5.74
12 | COc1ccc(Cc2cc3c(=O)n(-c4cccnc4)cnc3c3ccccc23)cc1 [Example 4, 6-(4-methoxybenzyl)-3-pyridin-3-ylbenzo[h]quinazolin-4(3H)-one] | 5.46
13 | O=C1CCCCC1n1cnc2c(cc(Cc3ccc(Cl)nc3)c3ccccc32)c1=O (stereo not shown) [Example 10, 6-[(6-chloropyridin-3-yl)methyl]-3-(2-oxycyclohexyl)benzo[h]quinazolin-4(3H)-one] | 5.89
14 | CC(=O)N[C@H]1CCCC[C@@H]1n1cnc2c(cc(Cc3ccc(Cl)nc3)c3ccccc32)c1=O [Example 12, N-{(1S,2S)-2-[6-[(6-chloropyridin-3-yl)methyl]-4-oxobenzo[h]quinazolin-3(4H)-yl]cyclohexyl}acetamide] | < 5.00
15 | CC(C)c1ccc(Cc2cc3c(=O)n([C@H]4CCCC[C@@H]4O)cnc3c3ccccc23)cn1 [Example 13] | 7.68
16 | CC(C)(O)c1ccc(Cc2cc3c(=O)n([C@H]4CCCC[C@@H]4O)cnc3c3ccccc23)cn1 [Example 14] | 7.34
17 | Cc1ccc(Cc2cc3c(=O)n([C@H]4CCCC[C@@H]4O)cnc3c3ccccc23)c[n+]1[O-] [Example 17, 3-[(1S,2S)-2-hydroxycyclohexyl]-6-[(6-methyl-1-oxidopyridin-3-yl)methyl]benzo[h]quinazolin-4(3H)-one] | 7.20
18 | O=c1c2cc(Cc3ccccn3)c3ccccc3c2ncn1[C@H]1CCCC[C@@H]1O [Example 18, 3-[(1S,2S)-2-hydroxycyclohexyl]-6-(pyridin-2-ylmethyl)benzo[h]quinazolin-4(3H)-one] | 6.64
19 | Cc1nc2c(cc(Cc3ccc(Cl)nc3)c3ccccc32)c(=O)n1[C@H]1CCCC[C@@H]1O [Example 19, 6-[(6-chloropyridin-3-yl)methyl]-3-[(1S,2S)-2-hydroxycyclohexyl]-2-methylbenzo[h]quinazolin-4(3H)-one] | 5.85
